ChEMBL document CHEMBL1201861, “Genomics of Drug Sensitity in Cancer screening data, Wellcome Trust Sanger Institute”

Experiments:
Experiment in all cases: cells
[1] = test system: RPMI-2650; type: functional, cell-based, Homo sapiens; details: Homo sapiens, RPMI-2650
Description: SANGER: Inhibition of human RPMI-2650 cell growth in a cell viability assay.

[2] = test system: RCM-1; type: functional, cell-based, Homo sapiens; details: Homo sapiens, RCM-1;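 further: growth inhibition of the RCM-1 line, determined with a cell viability readout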
Description: SANGER: Inhibition of human RCM-1 cell growth in a cell viability assay.

[3] = test system: SH-4; type: functional, cell-based, Homo sapiens; details: Homo sapiens, SH-4;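 further: growth inhibition of SH-4 cells, read out with a cell viability assay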
Description: SANGER: Inhibition of human SH-4 cell growth in a cell viability assay.

[4] = test system: ABC-1; type: functional, cell-based, Homo sapiens; details: Homo sapiens, ABC-1;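 further: growth inhibition of human ABC-1 cells, read out by a cell viability assay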
Description: SANGER: Inhibition of human ABC-1 cell growth in a cell viability assay.

[5] = test system: MZ2-MEL; type: functional, cell-based, Homo sapiens; details: Homo sapiens, MZ2-MEL;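 further: growth inhibition of MZ2-MEL cells read out with a cell viability assay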
Description: SANGER: Inhibition of human MZ2-MEL cell growth in a cell viability assay.

[6] = test system: J-RT3-T3-5; type: functional, cell-based; details: Homo sapiens;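 further: cell viability assay measuring growth inhibition of human J-RT3-T3-5 cells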
Description: SANGER: Inhibition of human J-RT3-T3-5 cell growth in a cell viability assay.

[7] = test system: SW13; type: functional, cell-based, Homo sapiens; details: Homo sapiens, SW13;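 further: IC50 is inhibition of SW13 cell growth, read out with a cell viability assay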
Description: SANGER: Inhibition of human SW13 cell growth in a cell viability assay.

[8] = test system: SW 962; type: functional, cell-based, Homo sapiens; details: Homo sapiens, SW 962;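 further: growth inhibition of human SW962 cells, read out by a cell viability assay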
Description: SANGER: Inhibition of human SW962 cell growth in a cell viability assay.

[9] = test system: COR-L105; type: functional, cell-based, Homo sapiens; details: Homo sapiens, COR-L105;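 further: cell growth inhibition determined with a viability assay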
Description: SANGER: Inhibition of human COR-L105 cell growth in a cell viability assay.

[10] = test system: NCI-H1792; type: functional, cell-based, Homo sapiens; details: Homo sapiens, NCI-H1792;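 further: growth inhibition of human NCI-H1792 cells, read out as cell viability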
Description: SANGER: Inhibition of human NCI-H1792 cell growth in a cell viability assay.

[11] = test system: SF-126; type: functional, cell-based, Homo sapiens; details: Homo sapiens, SF-126;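 further: growth inhibition of human SF126 cells, read out with a cell viability assay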
Description: SANGER: Inhibition of human SF126 cell growth in a cell viability assay.

[12] = test system: GR-ST; type: functional, cell-based; details: Homo sapiens
Description: SANGER: Inhibition of human GR-ST cell growth in a cell viability assay.

[13] = test system: OVCAR-4; type: functional, cell-based, Homo sapiens; details: Homo sapiens, OVCAR-4;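 further: growth inhibition of human OVCAR-4 cells, measured with a cell viability assay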
Description: SANGER: Inhibition of human OVCAR-4 cell growth in a cell viability assay.

[14] = test system: SK-MEL-28; type: functional, cell-based; details: Homo sapiens;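 further: growth inhibition of human SK-MEL-28 cells, read out with a cell viability assay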
Description: SANGER: Inhibition of human SK-MEL-28 cell growth in a cell viability assay.

[15] = test system: DU-4475; type: functional, cell-based; details: Homo sapiens
Description: SANGER: Inhibition of human DU-4475 cell growth in a cell viability assay.

[16] = test system: LU-139; type: functional, cell-based; details: Homo sapiens
Description: SANGER: Inhibition of human LU-139 cell growth in a cell viability assay.

[17] = test system: HT; type: functional, cell-based; details: Homo sapiens
Description: SANGER: Inhibition of human HT cell growth in a cell viability assay.

[18] = test system: RS4-11; type: functional, cell-based; details: Homo sapiens;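 further: growth inhibition of RS4-11 cells, read out by a cell viability assay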
Description: SANGER: Inhibition of human RS4-11 cell growth in a cell viability assay.

[19] = test system: HLE; type: functional, cell-based, Homo sapiens; details: Homo sapiens, HLE;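 further: growth inhibition of human HLE cells, read out by a cell viability assay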
Description: SANGER: Inhibition of human HLE cell growth in a cell viability assay.

[20] = test system: GCT; type: functional, cell-based, Homo sapiens; details: Homo sapiens, GCT;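 further: GCT cell line proliferation inhibition, read out with a cell viability assay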
Description: SANGER: Inhibition of human GCT cell growth in a cell viability assay.

[21] = test system: SW626; type: functional, cell-based, Homo sapiens; details: Homo sapiens, SW626;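 further: growth inhibition of SW626 cells, measured with a cell viability assay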
Description: SANGER: Inhibition of human SW626 cell growth in a cell viability assay.

[22] = test system: MKN-28; type: functional, cell-based, Homo sapiens; details: Homo sapiens, MKN-28;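 further: cell viability assay read-out, IC50 reflects suppression of growth of human MKN-28 cells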
[23] = test system: SHP77; type: functional, cell-based, Homo sapiens, SHP-77; details: Homo sapiens, SHP77;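 further: growth inhibition of human SHP-77 cells measured by a cell viability assay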
Description: SANGER: Inhibition of human SHP-77 cell growth in a cell viability assay.

[24] = test system: EW-24; type: functional, cell-based; details: Homo sapiens;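 further: human EW-24 cancer cell line, growth inhibition read out via a cell viability assay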
Description: SANGER: Inhibition of human EW-24 cell growth in a cell viability assay.

[25] = test system: SCH; type: functional, cell-based, Homo sapiens; details: Homo sapiens, SCH;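 further: growth inhibition of human SCH cells, read out in a cell viability assay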
Description: SANGER: Inhibition of human SCH cell growth in a cell viability assay.

[26] = test system: ES7; type: functional, cell-based, Homo sapiens; details: Homo sapiens, ES7;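 further: growth inhibition of cultured human ES7 cells, read out as cell viability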
Description: SANGER: Inhibition of human ES7 cell growth in a cell viability assay.

[27] = test system: AGS; type: functional, cell-based, Homo sapiens; details: Homo sapiens, AGS;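 further: growth inhibition of AGS cells, determined with a cell viability assay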
Description: SANGER: Inhibition of human AGS cell growth in a cell viability assay.

[28] = test system: KNS-42; type: functional, cell-based, Homo sapiens; details: Homo sapiens, KNS-42;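 further: growth inhibition of KNS-42 cells, read out with a cell viability assay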
Description: SANGER: Inhibition of human KNS-42 cell growth in a cell viability assay.

[29] = test system: KLE; type: functional, cell-based, Homo sapiens; details: Homo sapiens, KLE;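 further: growth inhibition of human KLE cells, read out with a cell viability assay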
Description: SANGER: Inhibition of human KLE cell growth in a cell viability assay.

[30] = test system: EKVX; type: functional, cell-based, Homo sapiens; details: Homo sapiens, EKVX;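 further: growth inhibition of human EKVX cells, read out with a cell viability assay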
Description: SANGER: Inhibition of human EKVX cell growth in a cell viability assay.

[31] = test system: COLO-320-HSR; type: functional, cell-based; details: Homo sapiens;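 further: growth inhibition of COLO-320-HSR cells, determined with a cell viability assay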
Description: SANGER: Inhibition of human COLO-320-HSR cell growth in a cell viability assay.

[32] = test system: KYSE-520 cell line; type: functional, cell-based, Homo sapiens; details: Homo sapiens, KYSE-520;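 further: growth inhibition of human KYSE-520 cells, read out with a viability assay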
Description: SANGER: Inhibition of human KYSE-520 cell growth in a cell viability assay.

[33] = test system: A-431; type: functional, cell-based, Homo sapiens; details: Homo sapiens, A-431;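 further: growth inhibition of A-431 cells, determined with a cell viability read-out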
Description: SANGER: Inhibition of human A431 cell growth in a cell viability assay.

[34] = test system: SK-UT-1; type: functional, cell-based, Homo sapiens; details: Homo sapiens, SK-UT-1;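 further: growth inhibition of SK-UT-1 cells, measured by a cell viability assay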
Description: SANGER: Inhibition of human SK-UT-1 cell growth in a cell viability assay.

[35] = test system: NCI-H2228; type: functional, cell-based, Homo sapiens; details: Homo sapiens, NCI-H2228;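 further: growth inhibition of human NCI-H2228 cells, read out by a cell viability assay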
Description: SANGER: Inhibition of human NCI-H2228 cell growth in a cell viability assay.

[36] = test system: C-33-A; type: functional, cell-based, Homo sapiens; details: Homo sapiens, C-33-A;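 further: cell viability assay measuring growth inhibition of C-33-A cells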
Description: SANGER: Inhibition of human C-33-A cell growth in a cell viability assay.

[37] = test system: KYSE-150 cell line; type: functional, cell-based, Homo sapiens; details: Homo sapiens, KYSE-150;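 further: growth inhibition of human KYSE-150 cells, read out with a cell viability assay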
Description: SANGER: Inhibition of human KYSE-150 cell growth in a cell viability assay.

[38] = test system: ATN-1; type: functional, cell-based; details: Homo sapiens;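 further: growth inhibition of human ATN-1 cells, read out with a cell viability assay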
Description: SANGER: Inhibition of human ATN-1 cell growth in a cell viability assay.

[39] = test system: HPAF-II; type: functional, cell-based, Homo sapiens; details: Homo sapiens, HPAF-II;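 further: growth inhibition of HPAF-II cells, read out with a cell viability assay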
Description: SANGER: Inhibition of human HPAF-II cell growth in a cell viability assay.

[40] = test system: MZ1-PC; type: functional, cell-based, Homo sapiens; details: Homo sapiens, MZ1-PC;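 further: cell viability assay measuring growth inhibition of human MZ1-PC cells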
Description: SANGER: Inhibition of human MZ1-PC cell growth in a cell viability assay.

[41] = test system: Huh-7; type: functional, cell-based, Homo sapiens; details: Homo sapiens, Huh-7;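 further: HuH-7 cell growth inhibition, read out with a cell viability assay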
Description: SANGER: Inhibition of human HuH-7 cell growth in a cell viability assay.

[42] = test system: EW-13; type: functional, cell-based; details: Homo sapiens;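 further: growth inhibition of EW-13 cells, read out with a cell viability assay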
Description: SANGER: Inhibition of human EW-13 cell growth in a cell viability assay.

[43] = test system: NCI-H1581; type: functional, cell-based, Homo sapiens; details: Homo sapiens, NCI-H1581;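 further: cell growth inhibition read out by a viability assay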
Description: SANGER: Inhibition of human NCI-H1581 cell growth in a cell viability assay.

[44] = test system: D-392MG; type: functional, cell-based, Homo sapiens; details: Homo sapiens, D-392MG
[45] = test system: LC-2-ad; type: functional, cell-based, Homo sapiens; details: Homo sapiens, LC-2-ad;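 further: growth inhibition of human LC-2-ad cells, read out with a cell viability assay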
Description: SANGER: Inhibition of human LC-2-ad cell growth in a cell viability assay.

[46] = test system: TE-12; type: functional, cell-based; details: Homo sapiens;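 further: growth inhibition of TE-12 cells, read out by a cell viability assay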
Description: SANGER: Inhibition of human TE-12 cell growth in a cell viability assay.

[47] = test system: SW-620; type: functional, cell-based, Homo sapiens; details: Homo sapiens, SW-620;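 further: growth inhibition of human SW-620 cells, measured by a cell viability assay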
Description: SANGER: Inhibition of human SW620 cell growth in a cell viability assay.

[48] = test system: KARPAS-45; type: functional, cell-based; details: Homo sapiens;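 further: inhibition of cell line growth, read out through a viability assay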
Description: SANGER: Inhibition of human KARPAS-45 cell growth in a cell viability assay.

[49] = test system: SW756; type: functional, cell-based, Homo sapiens; details: Homo sapiens, SW756;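 further: growth inhibition of human SW756 cells, read out with a cell viability assay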
Description: SANGER: Inhibition of human SW756 cell growth in a cell viability assay.

[50] = test system: SJSA-1; type: functional, cell-based, Homo sapiens; details: Homo sapiens, SJSA-1;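 further: growth inhibition of human SJSA-1 cells, read out through a cell viability measurement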
Description: SANGER: Inhibition of human SJSA-1 cell growth in a cell viability assay.

[51] = test system: MEG-01; type: functional, cell-based; details: Homo sapiens;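 further: growth inhibition of MEG-01 cells, read out by a cell viability assay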
Description: SANGER: Inhibition of human MEG-01 cell growth in a cell viability assay.

[52] = test system: CAL-12T; type: functional, cell-based, Homo sapiens; details: Homo sapiens, CAL-12T;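 further: growth inhibition of human CAL-12T cells, read out with a cell viability assay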
Description: SANGER: Inhibition of human CAL-12T cell growth in a cell viability assay.

## C=CCc1cccc(/C=N/NC(=O)CN2CCN(Cc3ccccc3)CC2)c1O [PAC-1]
[1]
  IC50: > 2.56 µM
[2]
  IC50: > 2.56 µM
[3]
  IC50: > 2.56 µM
[4]
  IC50: > 2.56 µM
[5]
  IC50: > 2.56 µM
[6]
  IC50: 1.2 µM
[7]
  IC50: > 2.56 µM
[8]
  IC50: > 2.56 µM
[9]
  IC50: > 2.56 µM
[10]
  IC50: > 2.56 µM
[11]
  IC50: > 2.56 µM
[12]
  IC50: > 2.56 µM
[13]
  IC50: > 2.56 µM
[14]
  IC50: > 2.56 µM
[15]
  IC50: 1.91 µM
[16]
  IC50: > 2.56 µM
[17]
  IC50: > 2.56 µM
[18]
  IC50: > 2.56 µM
[19]
  IC50: > 2.56 µM
[20]
  IC50: > 2.56 µM
[21]
  IC50: > 2.56 µM
[22]
  IC50: > 2.56 µM
[23]
  IC50: > 2.56 µM
[24]
  IC50: > 2.56 µM
[25]
  IC50: > 2.56 µM
[26]
  IC50: > 2.56 µM
[27]
  IC50: > 2.56 µM
[28]
  IC50: > 2.56 µM
[29]
  IC50: > 2.56 µM
[30]
  IC50: > 2.56 µM
[31]
  IC50: > 2.56 µM
[32]
  IC50: > 2.56 µM
[33]
  IC50: > 2.56 µM
[34]
  IC50: > 2.56 µM
[35]
  IC50: > 2.56 µM
[36]
  IC50: > 2.56 µM
[37]
  IC50: > 2.56 µM
[38]
  IC50: > 2.56 µM
[39]
  IC50: > 2.56 µM
[40]
  IC50: > 2.56 µM
[41]
  IC50: > 2.56 µM
[42]
  IC50: > 2.56 µM
[43]
  IC50: > 2.56 µM
[44]
  IC50: > 2.56 µM
[45]
  IC50: 0.898 µM
[46]
  IC50: > 2.56 µM
[47]
  IC50: > 2.56 µM
[48]
  IC50: > 2.56 µM
[49]
  IC50: > 2.56 µM
[50]
  IC50: 2.32 µM
[51]
  IC50: > 2.56 µM
[52]
  IC50: > 2.56 µM

## Cc1ccc(Nc2nccc(N(C)c3ccc4c(C)n(C)nc4c3)n2)cc1S(N)(=O)=O [PAZOPANIB]
[1]
  IC50: > 8 µM
[2]
  IC50: > 8 µM
[3]
  IC50: > 8 µM
[4]
  IC50: > 8 µM
[5]
  IC50: 6.93 µM
[6]
  IC50: > 8 µM
[7]
  IC50: > 8 µM
[8]
  IC50: > 8 µM
[9]
  IC50: > 8 µM
[10]
  IC50: > 8 µM
[11]
  IC50: 2.47 µM
[12]
  IC50: > 8 µM
[13]
  IC50: > 8 µM
[14]
  IC50: > 8 µM
[15]
  IC50: > 8 µM
[16]
  IC50: > 8 µM
[17]
  IC50: > 8 µM
[18]
  IC50: > 8 µM
[19]
  IC50: 1.64 µM
[20]
  IC50: > 8 µM
[21]
  IC50: > 8 µM
[22]
  IC50: > 8 µM
[23]
  IC50: > 8 µM
[24]
  IC50: > 8 µM
[25]
  IC50: > 8 µM
[26]
  IC50: > 8 µM
[27]
  IC50: > 8 µM
[28]
  IC50: > 8 µM
[29]
  IC50: > 8 µM
[30]
  IC50: > 8 µM
[31]
  IC50: > 8 µM
[32]
  IC50: > 8 µM
[33]
  IC50: > 8 µM
[34]
  IC50: > 8 µM
[35]
  IC50: > 8 µM
[36]
  IC50: > 8 µM
[37]
  IC50: > 8 µM
[38]
  IC50: > 8 µM
[39]
  IC50: > 8 µM
[40]
  IC50: > 8 µM
[41]
  IC50: 7.69 µM
[42]
  IC50: > 8 µM
[43]
  IC50: > 8 µM
[44]
  IC50: > 8 µM
[45]
  IC50: > 8 µM
[46]
  IC50: > 8 µM
[47]
  IC50: > 8 µM
[48]
  IC50: > 8 µM
[49]
  IC50: > 8 µM
[50]
  IC50: > 8 µM
[51]
  IC50: > 8 µM
[52]
  IC50: > 8 µM

## Nc1ccn([C@@H]2O[C@H](CO)[C@@H](O)[C@@H]2O)c(=O)n1 [CYTARABINE]
[1]
  IC50: 0.401 µM
[2]
  IC50: > 2 µM
[3]
  IC50: > 2 µM
[4]
  IC50: 1.52 µM
[5]
  IC50: 1.43 µM
[6]
  IC50: 0.0684 µM
[7]
  IC50: 0.476 µM
[8]
  IC50: > 2 µM
[9]
  IC50: 0.16 µM
[10]
  IC50: 1.42 µM
[11]
  IC50: 0.693 µM
[12]
  IC50: 0.385 µM
[13]
  IC50: > 2 µM
[14]
  IC50: 0.799 µM
[15]
  IC50: 0.575 µM
[16]
  IC50: > 2 µM
[17]
  IC50: > 2 µM
[18]
  IC50: 0.381 µM
[19]
  IC50: 1.59 µM
[20]
  IC50: 0.856 µM
[21]
  IC50: > 2 µM
[22]
  IC50: > 2 µM
[23]
  IC50: > 2 µM
[24]
  IC50: 0.794 µM
[25]
  IC50: > 2 µM
[26]
  IC50: 0.257 µM
[27]
  IC50: 0.918 µM
[28]
  IC50: > 2 µM
[29]
  IC50: > 2 µM
[30]
  IC50: > 2 µM
[31]
  IC50: > 2 µM
[32]
  IC50: > 2 µM
[33]
  IC50: > 2 µM
[34]
  IC50: 0.181 µM
[35]
  IC50: 0.597 µM
[36]
  IC50: 0.551 µM
[37]
  IC50: > 2 µM
[38]
  IC50: 0.366 µM
[39]
  IC50: > 2 µM
[40]
  IC50: 1.8 µM
[41]
  IC50: > 2 µM
[42]
  IC50: 1.98 µM
[43]
  IC50: 1.77 µM
[45]
  IC50: 0.23 µM
[46]
  IC50: > 2 µM
[47]
  IC50: 0.349 µM
[48]
  IC50: > 2 µM
[49]
  IC50: 0.719 µM
[50]
  IC50: 0.235 µM
[51]
  IC50: > 2 µM
[52]
  IC50: > 2 µM

## COc1ccc(C2=N[C@@H](c3ccc(Cl)cc3)[C@@H](c3ccc(Cl)cc3)N2C(=O)N2CCNC(=O)C2)c(OC(C)C)c1 [NUTLIN-3]
[1]
  IC50: 7.94 µM
[2]
  IC50: > 8 µM
[3]
  IC50: > 8 µM
[4]
  IC50: > 8 µM
[5]
  IC50: 4.5 µM
[6]
  IC50: > 8 µM
[7]
  IC50: > 8 µM
[8]
  IC50: > 8 µM
[9]
  IC50: > 8 µM
[10]
  IC50: > 8 µM
[11]
  IC50: > 8 µM
[12]
  IC50: > 8 µM
[13]
  IC50: > 8 µM
[14]
  IC50: > 8 µM
[15]
  IC50: 2.8 µM
[16]
  IC50: > 8 µM
[17]
  IC50: > 8 µM
[18]
  IC50: 2.72 µM
[19]
  IC50: > 8 µM
[20]
  IC50: > 8 µM
[21]
  IC50: > 8 µM
[22]
  IC50: > 8 µM
[23]
  IC50: > 8 µM
[25]
  IC50: > 8 µM
[26]
  IC50: > 8 µM
[27]
  IC50: 6.15 µM
[28]
  IC50: > 8 µM
[29]
  IC50: > 8 µM
[30]
  IC50: > 8 µM
[31]
  IC50: > 8 µM
[32]
  IC50: > 8 µM
[33]
  IC50: > 8 µM
[34]
  IC50: > 8 µM
[35]
  IC50: > 8 µM
[36]
  IC50: > 8 µM
[37]
  IC50: > 8 µM
[38]
  IC50: > 8 µM
[39]
  IC50: > 8 µM
[40]
  IC50: > 8 µM
[41]
  IC50: > 8 µM
[42]
  IC50: > 8 µM
[43]
  IC50: > 8 µM
[44]
  IC50: > 8 µM
[45]
  IC50: > 8 µM
[46]
  IC50: > 8 µM
[47]
  IC50: > 8 µM
[48]
  IC50: > 8 µM
[49]
  IC50: > 8 µM
[50]
  IC50: 2.83 µM
[51]
  IC50: > 8 µM
[52]
  IC50: > 8 µM
